Test results taken from patent US10508109B2 (priority 2015, dated 2019).
Like-named read-outs stand apart in the source and are kept apart here.

Legend:
HFL1 = assay: Cell-based assay, anti-proliferative activity (Cell Counting Kit-8, 72 hours); conditions: Homo sapiens, read-out: IC50 (μM) HFL1
Procedure, shortened: (§1)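 Cells seeded at 2,000–3,000 per well and exposed 72 h to compound at 0–100 micro-M (2-fold series). Growth measured with CCK-8; IC50 taken as anti-proliferative indicator.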

CCD-18Co = assay: as above; conditions: Homo sapiens, read-out: IC50 (μM) CCD-18Co
Procedure, shortened: as §1

HCT-116 = assay: as above; conditions: Homo sapiens, read-out: IC50 (μM) HCT-116
Procedure, shortened: as §1

PC14 = assay: as above; conditions: Homo sapiens, read-out: IC50 (μM) PC14
Procedure, shortened: as §1

A549 = assay: as above; conditions: Homo sapiens, read-out: IC50 (μM) A549
Procedure, shortened: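 IC50 values come from growth read-outs taken after the cells' exposure to each candidate inhibitor. Cells had been plated in 96-well microtiter plates beforehand.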

SUV39H2 = SUV39H2 (Homo sapiens (Human), UniProt Q9H5I1); conditions: read-out: IC50 (μM) Suv 39H2 assay; enzyme assay
Chain of SUV39H2 (Q9H5I1 whole entry): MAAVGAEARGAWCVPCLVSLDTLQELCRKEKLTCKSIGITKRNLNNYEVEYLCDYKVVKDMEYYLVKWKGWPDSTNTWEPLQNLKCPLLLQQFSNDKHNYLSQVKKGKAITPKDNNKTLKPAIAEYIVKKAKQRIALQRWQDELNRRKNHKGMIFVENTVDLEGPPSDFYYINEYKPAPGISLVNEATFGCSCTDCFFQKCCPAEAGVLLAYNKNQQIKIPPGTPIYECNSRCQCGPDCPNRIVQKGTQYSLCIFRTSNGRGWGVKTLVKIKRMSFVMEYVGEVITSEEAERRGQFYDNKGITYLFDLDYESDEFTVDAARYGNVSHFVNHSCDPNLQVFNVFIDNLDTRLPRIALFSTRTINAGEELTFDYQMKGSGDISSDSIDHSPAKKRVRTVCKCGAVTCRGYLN

[1] = HFL1 cells, Cell Counting Kit-8, 72 hours
[2] = CCD-18Co cells, Cell Counting Kit-8, 72 hours
[3] = HCT-116 cells, Cell Counting Kit-8, 72 hours
[4] = PC-14, PC14 cells, Cell Counting Kit-8, 72 hours
[5] = A549 cells, Cell Counting Kit-8, 72 hours
[6] = HFL1 cells, 72 hours, Cell Counting Kit-8
[7] = CCD-18Co cells, 72 hours, Cell Counting Kit-8
[8] = HCT-116 cells, 72 hours, Cell Counting Kit-8
[9] = PC-14, PC14 cells, 72 hours, Cell Counting Kit-8
[10] = A549 cells, 72 hours, Cell Counting Kit-8

| Structure (SMILES) | IC50 (HFL1; [1]) [µM] | IC50 (CCD-18Co; [2]) [µM] | IC50 (HCT-116; [3]) [µM] | IC50 (PC14; [4]) [µM] | IC50 (A549; [5]) [µM] | IC50 (SUV39H2) [µM] | IC50 (HFL1; HFL1, 72 h) [µM] | IC50 (CCD-18Co; CCD-18Co, 72 h) [µM] | IC50 (HCT-116; HCT-116, 72 h) [µM] | IC50 (PC14; PC-14, 72 h) [µM] | IC50 (A549; A549, 72 h) [µM] | IC50 (HFL1; [6]) [µM] | IC50 (CCD-18Co; [7]) [µM] | IC50 (HCT-116; [8]) [µM] | IC50 (PC14; [9]) [µM] | IC50 (A549; [10]) [µM] |
| --- | --- | --- | --- | --- | --- | --- | --- | --- | --- | --- | --- | --- | --- | --- | --- | --- |
| COc1cc(OC)c(-c2cn3ccc(N4CCCN(S(C)(=O)=O)CC4)cc3n2)cc1Cl [Example 201, 2-(5-chloro-2,4-dimethoxyphenyl)-7-[4-(methylsulfonyl)-1,4-diazepan-1-yl]imidazo[1,2-a]pyridine] | 3 | 3.2 | 2.7 | 1.9 | 2.2 | 0.0064 |  |  |  |  |  |  |  |  |  |  |
| CCOP(=O)(CCN1CCN(c2ccn3cc(-c4cc(Cl)c(OC)cc4OC)nc3c2)CC1)OCC [Example 202, diethyl (2-(4-(2-(5-chloro-2,4-dimethoxyphenyl)imidazo[1,2-a]pyridin-7-yl)piperazin-1-yl)ethyl)phosphonate] | 7.2 | 5.6 | 10 | 8 | 10 | 0.0064 |  |  |  |  |  |  |  |  |  |  |
| COc1cc(OC)c(-c2cn3ccc(N4CCN(P(=O)(OC)OC)CC4)cc3n2)cc1Cl [Example 203, dimethyl {4-[2-(5-chloro-2,4-dimethoxyphenyl)imidazo[1,2-a]pyridin-7-yl]piperazin-1-yl}phosphonate] |  |  |  |  |  | 0.00177 | 4 | 6 | 5.1 | 1.8 | 3.9 |  |  |  |  |  |
| COc1cc(OC)c(-c2cn3ccc(N4CCN(S(=O)(=O)C5CCCC5)CC4)nc3n2)cc1Cl [Example 204, 2-(5-chloro-2,4-dimethoxyphenyl)-7-[4-(cyclopentylsulfonyl)-piperazin-1-yl]imidazo[1,2-a]pyrimidine] | 1.7 | 4.5 | 1 | 0.6 | 0.75 | 0.0448 |  |  |  |  |  |  |  |  |  |  |
| COc1cc(OC)c(-c2cn3ccc(N4CCN(S(=O)(=O)C(C)C)CC4)nc3n2)cc1Cl [Example 205, 2-(5-chloro-2,4-dimethoxyphenyl)-7-[4-(isopropylsulfonyl)piperazin-1-yl]imidazo[1,2-a]pyrimidine] | 2 | 3.1 | 1.9 | 0.62 | 1.2 | 0.0291 |  |  |  |  |  |  |  |  |  |  |
| CCS(=O)(=O)N1CCCN(c2ccn3cc(-c4cc(Cl)c(OC)cc4OC)nc3c2)CC1 [Example 206, 2-(5-chloro-2,4-dimethoxyphenyl)-7-[4-(ethylsulfonyl)-1,4-diazepan-1-yl]imidazo[1,2-a]pyridine] | 2.3 | 2.9 | 3.3 | 1.6 | 2.6 | 0.00561 |  |  |  |  |  |  |  |  |  |  |
| COc1cc(OC)c(-c2cn3ccc(N4CCCN(P(=O)(OC)OC)CC4)cc3n2)cc1Cl [Example 207, dimethyl (4-(2-(5-chloro-2,4-dimethoxyphenyl)imidazo[1,2-a]pyridin-7-yl)-1,4-diazepan-1-yl)phosphonate] |  |  |  |  |  | 0.0113 | 10 | 10 | 10 | 10 | 10 |  |  |  |  |  |
| COc1cc(OC)c(-c2cn3cc(NCCN)c(N4CCOCC4)c(F)c3n2)cc1Cl [Example 208, N^1-(2-(5-chloro-2,4-dimethoxyphenyl)-8-fluoro-7-morpholinoimidazo-[1,2-a]pyridine-6-yl)ethane-1,2-diamine] | 8.4 | 5.9 | 10 | 8.4 | 10 | 0.0291 |  |  |  |  |  |  |  |  |  |  |
| COc1cc(OCCCN(C)C)c(-c2cn3ccc(N4CCCNCC4)cc3n2)cc1Cl [Example 209, 3-{2-[7-(1,4-diazepan-1-yl)imidazo[1,2-a]pyridin-2-yl]-4-chloro-5-methoxyphenoxy}-N,N-dimethylpropan-1-amine] | 1.2 | 3.2 | 3.7 | 2.7 | 3 | 0.00207 |  |  |  |  |  |  |  |  |  |  |
| CCOP(=O)(CCN1CCCN(c2ccn3cc(-c4cc(Cl)c(OC)cc4OC)nc3c2)CC1)OCC [Example 210, diethyl (2-(4-(2-(5-chloro-2,4-dimethoxyphenyl)imidazo[1,2-a]pyridin-7-yl)-1,4-diazepan-1-yl)ethyl)phosphonate] | 7.2 | 5.5 | 10 | 4.5 | 10 | 0.0029 |  |  |  |  |  |  |  |  |  |  |
| COc1cc(OCCCN(C)C)c(-c2cn3ccc(N4CCCN(C(=O)OC(C)(C)C)CC4)cc3n2)cc1Cl [Example 211, tert-butyl 4-(2-{5-chloro-2-[3-(dimethylamino)propoxy]-4-methoxyphenyl}imidazo[1,2-a]pyridin-7-yl)-1,4-diazepane-1-carboxylate] | 1.4 | 1.4 | 2.4 | 0.8 | 2.9 | 0.0563 |  |  |  |  |  |  |  |  |  |  |
| COc1cc(OCCCN(C)C)c(-c2cn3ccc(N4CCCN(S(=O)(=O)C5CC5)CC4)cc3n2)cc1Cl [Example 212, 3-(4-chloro-2-(7-(4-(cyclopropylsulfonyl)-1,4-diazepan-1-yl)imidazo[1,2-a]-pyridin-2-yl)-5-methoxyphenoxy)-N,N-dimethylpropan-1-amine] | 5.8 | 6 | 8.6 | 4.2 | 8.1 | 0.0161 |  |  |  |  |  |  |  |  |  |  |
| COc1cc(OCCCN(C)C)c(-c2cn3ccc(N4CCCN(S(C)(=O)=O)CC4)cc3n2)cc1Cl [Example 213, 3-(4-chloro-2-(7-(4-(methylsulfonyl)-1,4-diazepan-1-yl)imidazo-[1,2-a]pyridin-2-yl)-5-methoxyphenoxy)-N,N-dimethylpropan-1-amine] |  |  |  |  |  | 0.0145 |  |  |  |  |  | 7.4 | 10 | 5.5 | 9.1 | 10 |
| CCOP(=O)(CCN1CCCN(c2ccn3cc(-c4cc(Cl)c(OC)cc4OCCCN(C)C)nc3c2)CC1)OCC [Example 214, diethyl (2-(4-(2-(5-chloro-2-(3-(dimethylamino)propoxy)-4-methoxyphenyl)-imidazo[1,2-a]pyridin-7-yl)-1,4-diazepan-1-yl)ethyl)phosphonate] |  |  |  |  |  | 0.0106 |  |  |  |  |  | 10 | 10 | 10 | 10 | 10 |
| CCS(=O)(=O)N1CCCN(c2ccn3cc(-c4cc(Cl)c(OC)cc4OCCCN(C)C)nc3c2)CC1 [Example 215, 3-(4-chloro-2-(7-(4-(ethylsulfonyl)-1,4-diazepan-1-yl)imidazo[1,2-a]pyridin-2-yl)-5-methoxyphenoxy)-N,N-dimethylpropan-1-amine] |  |  |  |  |  | 0.0135 |  |  |  |  |  | 6.4 | 7.4 | 10 | 6.5 | 10 |
| COc1cc(OCCCN(C)C)c(-c2cn3ccc(N4CCCN(S(=O)(=O)N(C)C)CC4)cc3n2)cc1Cl [Example 216, 4-(2-{5-chloro-2-[3-(dimethylamino)propoxy]-4-methoxyphenyl}-imidazo[1,2-a]pyridin-7-yl)-N,N-dimethyl-1,4-diazepane-1-sulfonamide] |  |  |  |  |  | 0.0194 |  |  |  |  |  | 1.5 | 2.7 | 3.3 | 1.6 | 1.9 |
| COc1cc(OC)c(-c2cn3cc(Br)c(N4CCNCC4)cc3n2)cc1Cl [Example 217, 6-bromo-2-(5-chloro-2,4-dimethoxyphenyl)-7-(piperazin-1-yl)-imidazo[1,2-a]pyridine] |  |  |  |  |  | 0.0416 |  |  |  |  |  | 4.9 | 4.3 | 5.5 | 3.4 | 7.2 |
